Here are results for six compounds from patent publication US11242337B2, “Compounds useful for treating gastrointestinal tract disorders” (Ardelyx, Inc., priority 2017, dated 2022).

Assay [1] concerns absorption of sodium from the intestinal lumen. Nature of the assay: Inhibition of intestinal sodium absorption in mice. As to conditions: CD-1 mice, 15 mg/kg oral gavage twice daily; for Fecal fluid content (Δ from vehicle): day 3, change from vehicle group mean; for response vs control in vivo at 15 mg/kg: Mus musculus, 72 h, day 3, normalized to dietary sodium intake. Type of assay: in vivo. As for the experimental part: Urinary and fecal sodium excretions were measured to assess the ability of selected example compounds to inhibit the absorption of sodium from the intestinal lumen. In addition, an assessment of the absence or presence of diarrhea in response to compound treatment was made. Approximately eight-week old, male, CD-1 mice were purchased from Envigo (Livermore, Calif.), were housed 6 per cage and acclimated for at least 48 hours before study initiation. Animals were fed Harlan Teklad Global TD.160470 rodent chow (Madison, Wis.), standard laboratory rodent chow Harlan Teklad Global 2018 with the addition of 0.4% inorganic phosphorous. […] To initiate the study, mice were weighed and then individually placed in metabolic cages. Following a 3-day acclimation period to the metabolic cage, a 24-hr baseline collection of urine and feces was performed. […] Each day, measurements of body weight. 24-hour food intake, water intake, urine volume and wet fecal weight were recorded, along with any observation of diarrhea. Fecal samples were dried using a lyophilizer for at least 3 days, following which dry weight was recorded and fecal fluid content was calculated based on the difference between the wet and dry stool weights. Fecal fluid content on day 3 of compound treatment was calculated as a change from the vehicle group mean. For urine samples, the volumes were determined gravimetrically. Feces and urine were analyzed for sodium content by microwave plasma-atomic emission spectroscopy or ion chromatography, respectively. Urine samples were analyzed on an ion chromatography system (Thermo Fisher ICS-3000 or ICS-5000+) coupled with conductivity detectors. Chromatographic separation of cations was performed using an IonPac CS12A (Thermo Fisher) 2×250 mm analytical column with an isocratic elution using […] methanesulfonic acid. Concentrations were interpolated from a a standard curve (prepared in 10 mM HCl) for sodium ion based on retention time and peak area. Fecal sample analysis by Microwave Plasma Atomic Emission Spectrometry (MP-AES). Dry fecal samples were ground into a fine powder on a homogenizer and the ground samples (400-600 mg aliquots weighed) were digested with nitric acid by microwave method (Mars 6). These digested samples were diluted with 1% Nitric acid and analyzed on Agilent 4100 MP-AES. Concentrations were calculated relative to a standard curve (prepared in 1% Nitric acid) for sodium based on the signal intensity. Sodium was detected at a wavelength of 588.995 nm. Twenty-four-hour urinary sodium excretion (ma/24-hours) was calculated by multiplying urinary sodium concentration by 24-hour urine volume. Twenty-four-hour fecal sodium excretion (mg/24-hours) was calculated by multiplying fecal sodium concentration by 24-hour dry fecal weight. The urinary and fecal sodium excretion on day 3 of compound treatment were normalized to dietary sodium intake and expressed as a percentage of the vehicle mean.

Assay [2] has as its system human ileum monolayer culture. The assay is described as follows: Sustained inhibition of apical acid secretion in human organoid monolayer cell cultures (ileum). It is filed as cell-based. The following applies: Homo sapiens, 48 h; 1 μM apical, dosed day 6, apical media pH day 8, vs DMSO. The protocol: (§1) Basal media (BM) consisted of advanced DMEM/F12 containing 10 mM HEPES Invitrogen, 15630-080), 1:100 Glutamax (Invitrogen, 35050-061), and 1:100 penicillin/streptomycin (Invitrogen, 15140-122). Supplemented basal media (SBM) contained 1:100 N2 (Invitrogen, 17502-048), 1:50 B27 (Invitrogen, 12587-010), 1 mM N-acetylcysteine (Sigma, A9165), and 10 nM [Leu15]-gastrin I (Sigma, G9145). Growth factors used included 50 ng per mL mouse EGF (Peprotech, 315-09), 100 ng per mL mouse noggin (Peprotech, 250-38), 500 ng per mL human R-spondin 1 (R&D, 4645-RS), 100 ng per mL mouse Wnt-3a (R&D, 1324-WN), 20 μM. Y-27632 (Tocris, 1254), 10 mM nicotinamide (Sigma, N0636), 500 nM A83-01 (Tocris, 2939), 10 μM SB202190 (Tocris, 1264). Transwells were 0.4 μm pore polyester membrane 24-well Transwell inserts (Corning). Cultures were incubated at 37° C. in 5% CO2.
(§2) Human ileum organoids were cultured in WENRNAS (Wnt, EGF, noggin, R-spondin1, Nicotinamide, A83-01, SB202190) and typically grown for 7-12 days before being used to plate monolayer cultures. On day 0, organoid cultures embedded in Matrigel were treated with TrypLE Express to break organoids into small pieces and/or single cells. The cells were resuspended to 0.5×10^6 cells/mL in SBM containing WENRAY (Wnt, EGF, noggin, R-spondin1, A83-01, Y-27632). Following this step, 200 μL of cell suspension was plated into the apical side of a 24-well Transwell (100,000 cells/well) and 600 μL of SBM with WENRAY was added to the basolateral side. Ileum cells were differentiated with ENRA (EGF, noggin, R-spondin 1, A83-01) on day 3. The color of apical compartment turns from pink or orange to yellow due to the increase in NHE3 expression after differentiation.
(§3) Each human ileum monolayer culture well was washed twice with fresh SBM on the apical side on day 6 before compound dosing. All compound stocks were 10 mM dissolved in DMSO. Each compound stock was individually mixed with fresh SBM to reach final compound concentration 1 μM and dosed only on the apical side of the monolayer (total volume 200 μl). DMSO at the equivalent concentration was used as the vehicle control. Duplicate wells were dosed for each compound. On day 8, apical media pH was measured by pH electrode, to determine the ability of example compounds to produce sustained inhibition of NHE3 activity in a human monolayer culture system by preventing proton secretion into the apical compartment.

Assay [3] has as its system human duodenum monolayer culture. Nature of the assay: Sustained inhibition of apical acid secretion in human organoid monolayer cell cultures (duodenum). The following applies: Homo sapiens. It is filed as cell-based. As for the experimental part: as §1, §3
as §2, with “Human duodenum” for “Human ileum”, “side. Duodenum” for “side. Ileum”, “with ENA” for “with ENRA”, “noggin,” for “noggin, R-spondin 1,”

[4] abbreviates: read-out: Fecal Na Excretion (% of vehicle).
The mark [5] stands for this setting: read-out: Urinary Na Excretion (% of vehicle).

Where two headings read alike, the source gives them in different places.

A word on the inhibition: it is the percentage by which the read-out fell short of the control. Higher therefore signals a strong effect.

For the compound `Cc1cc(O[C@H]2c3cc(Cl)cc(Cl)c3C[C@@H]2N(C)C)c(F)cc1S(=O)(=O)NCCOCCOCCNC(=O)NCCCCNC(=O)NCCOCCOCCNS(=O)(=O)c1cc(F)c(O[C@H]2c3cc(Cl)cc(Cl)c3C[C@@H]2N(C)C)cc1C` [Example 88, 3-[2-(2-[2-[(4-[[(1S,2S)-4,6-Dichloro-2-(dimethylamino)-2,3-dihydro-1H-inden-1-yl]oxy]-5-fluoro-2-methylbenzene)sulfonamido]ethoxy]ethoxy)ethyl]-1-[4-([[2-(2-[2-[(4-[[(1S,2S)-4,6-dichloro-2-(dimethylamino)-2,3-dihydro-1H-inden-1-yl]oxy]-5-fluoro-2-methylbenzene)sulfonamido]ethoxy]ethoxy)ethyl]carbamoyl]amino)butyl]urea], the “Fecal fluid content (Δ from vehicle)” value in assay [1] is “B (5-10)”. For the same compound, the response vs control in vivo at 15 mg/kg lay in the range of 150 to 200% in assay [1] (setting [4]) and 50 to 70% in assay [1] (setting [5]).

For the compound `Cc1cc(S(=O)(=O)N[C@H]2CCN(CCOCCNC(=O)NCCCCNC(=O)NCCOCCN3CC[C@H](NS(=O)(=O)c4ccc(O[C@H]5c6cc(Cl)cc(Cl)c6C[C@@H]5N(C)C)c(C)c4)C3=O)C2=O)ccc1O[C@H]1c2cc(Cl)cc(Cl)c2C[C@@H]1N(C)C` [Example 91, 1-(2-[2-[(3S)-3-[(4-[[(1S,2S)-4,6-Dichloro-2-(dimethylamino)-2,3-dihydro-1H-inden-1-yl]oxy]-3-methylbenzene)sulfonamido]-2-oxopyrrolidin-1-yl]ethoxy]ethyl)-3-(4-[[(2-[2-[(3S)-3-[(4-[[(1S,2S)-4,6-dichloro-2-(dimethylamino)-2,3-dihydro-1H-inden-1-yl]oxy]-3-methylbenzene)sulfonamido]-2-oxopyrrolidin-1-yl]ethoxy]ethyl)carbamoyl]amino]butyl)urea], the inhibition at 1 µM in assay [2] is 50 to 70%; in assay [3], more than 70%.

In the case of `Cc1cc(Cl)cc2c1C[C@H](N1CCC[C@@H](N(C)C)C1)[C@H]2Oc1ccc(S(=O)(=O)NCCOCCOCCNC(=O)NCCCCNC(=O)NCCOCCOCCNS(=O)(=O)c2ccc(O[C@H]3c4cc(Cl)cc(C)c4C[C@@H]3N3CCC[C@@H](N(C)C)C3)c(F)c2)cc1F` [Example 30, 3-[2-(2-[2-[(4-[[(1S,2S)-6-Chloro-2-[(3R)-3-(dimethylamino)piperidin-1-yl]-4-methyl-2,3-dihydro-1H-inden-1-yl]oxy]-3-fluorobenzene)sulfonamido]ethoxy]ethoxy)ethyl]-1-[4-([[2-(2-[2-[(4-[[(1S,2S)-6-chloro-2-[(3R)-3-(dimethylamino)piperidin-1-yl]-4-methyl-2,3-dihydro-1H-inden-1-yl]oxy]-3-fluorobenzene)sulfonamido]ethoxy]ethoxy)ethyl]carbamoyl]amino)butyl]urea; bis(trifluoroacetic acid)], in assay [1], the “Fecal fluid content (Δ from vehicle)” value is recorded as “C (>10)”. Further, the response vs control in vivo at 15 mg/kg in assay [1] (setting [4]) is more than 200%; in assay [1] (setting [5]), 50 to 70%.

Regarding `O=C(NCCCCNC(=O)NCCOCCN1CC[C@H](NS(=O)(=O)c2ccc(O[C@H]3c4cc(Cl)cc(Cl)c4C[C@@H]3N3CCNCC3)c(F)c2)C1)NCCOCCN1CC[C@H](NS(=O)(=O)c2ccc(O[C@H]3c4cc(Cl)cc(Cl)c4C[C@@H]3N3CCNCC3)c(F)c2)C1` [Example 106, 4-([(1S,2S)-4,6-Dichloro-2-(piperazin-1-yl)-2,3-dihydro-1H-inden-1-yl]oxy)-N—[(S)-1-(20-[(S)-3-([4-([(1S,2S)-4,6-dichloro-2-(piperazin-1-yl)-2,3-dihydro-1H-inden-1-yl]oxy)-3-fluorophenyl]sulfonamido)pyrrolidin-1-yl]-7,14-dioxo-3,18-dioxa-6,8,13,15-tetraazaicosyl)pyrrolidin-3-yl]-3-fluorobenzenesulfonamide; tetra(trifluoroacetate)], the inhibition at 1 µM in assay [2] and in assay [3] was more than 70% each time.

`N#Cc1cc(Cl)cc2c1C[C@H](N1CCNCC1)[C@H]2Oc1ccc(S(=O)(=O)NC2CCN(C(=O)CCCNC(=O)NCCCCNC(=O)NCCCC(=O)N3CCC(NS(=O)(=O)c4ccc(O[C@H]5c6cc(Cl)cc(C#N)c6C[C@@H]5N5CCNCC5)cc4)CC3)CC2)cc1` [Example 115]: the inhibition at 1 µM in assay [2] and in assay [3] was more than 70% throughout.

In the case of `Cc1cc(S(=O)(=O)N[C@@H]2CCN(CCOCCNC(=O)NCCCCNC(=O)NCCOCCN3CC[C@@H](NS(=O)(=O)c4ccc(O[C@H]5c6cc(Cl)cc(Cl)c6C[C@@H]5N(C)C)c(C)c4)C3)C2)ccc1O[C@H]1c2cc(Cl)cc(Cl)c2C[C@@H]1N(C)C` [Example 53, 3-(2-[2-[(3R)-3-[(4-[[(1S,2S)-4,6-Dichloro-2-(dimethylamino)-2,3-dihydro-1H-inden-1-yl]oxy]-3-methylbenzene)sulfonamido]pyrrolidin-1 yl]ethoxy]ethyl)-1-(4-[[(2-[2-[(3R)-3-[(4-[[(1S,2S)-4,6-dichloro-2-(dimethylamino)-2,3-dihydro-1H-inden-1-yl]oxy]-3-methylbenzene)sulfonamido]pyrrolidin-1-yl]ethoxy]ethyl)carbamoyl]amino]butyl)urea], in assay [1], the “Fecal fluid content (Δ from vehicle)” value is “B (5-10)”. Further, the response vs control in vivo at 15 mg/kg in assay [1] (setting [4]) is less than 150%; in assay [1] (setting [5]), more than 70%.
